Experimental data: patent publication EP0292365A2, “4-Amino-5,8-quinazolindione derivatives, process for their preparation and pharmaceutical compositions containing them” (CENTRE NATIONAL DE LA RECHERCHE SCIENTIFIQUE, priority 1987, dated 1988)
Like-named read-outs stand apart in the source and are kept apart here.

Assays:
cellules L1210 = conditions: J. Med. Chem. 1983, 26, pp. 1715-1719; cited from earlier work
leucémie murine P388 = conditions: J. Med. Chem. 1983, 26, pp. 1715-1719; cited from earlier work
leucémie L1210 = conditions: J. Med. Chem. 1983, 26, pp. 1715-1719; cited from earlier work
sarcome 180 = conditions: J. Med. Chem. 1983, 26, pp. 1715-1719; cited from earlier work
mélanocarcinome B16 = conditions: J. Med. Chem. 1983, 26, pp. 1715-1719; cited from earlier work
[1] = J. Med. Chem. 1983, 26, pp. 1715-1719; cited from earlier work
[2] = tested on: cellules leucémiques L 1210; test: In vitro cytotoxicity: growth inhibition of L 1210 leukemia cells (Coulter count); assay type: cell-based, souris; conditions: Mus musculus, L1210, 48 h, read-out: CI50 après 48 h de culture
Protocol: La détermination de la cytotoxicité in vitro sur les cellules leucémiques L 1210 est la méthode utilisée pour sélectionner les molécules potentiellement antitumorales. Le protocole mis en oeuvre est le suivant :
les cellules leucématiques L 1210 adaptées à la culture en suspension stationnaire sont entretenues dans du milieu RPMI 1640 (commercialisé par Seromed) additionné de 20 % de sérum de cheval décomplémenté, L-glutamine (2 mM), pénicilline (200 U/ml), streptomycine (50µg/ml) et cultivées à 37° C dans une atmosphère à 5 % de C02. Les cultures testées par la méthode de BARILE (BARILE M.F. Mycoplasmal contamination of cell culture, in Contamination in Tissue Culture, J. Fogh (ed.) Acad. Press, 132-156, 1973) sont exemptes de contaminations bactériennes et mycoplasmiques.
Pour les expérimentations, les cellules sont ensemencées à la concentration de 0,8.10^5 cellules/ml et cultivées par 2 ml dans des flacons de 15 ml. Les substances à étudier sont dissoutes dans du DMSO (1 % final) dont on a préalablement vérifié l'innocuité. Des quantités croissantes de produit à tester sont ajoutées au temps 0 et des numérations sont faites au compteur COULTER après 24 et 48 heures de culture. Des séries de contrôle sont effectuées avec des quantités de DMSO équivalentes à celles des séries traitées.
Le temps de doublement des cellules témoins est approximativement de 12 heures.
La cytotoxicité est déterminée d'après l'inhibition de croissance des cellules L 1210, calculée par rapport aux témoins correspondants selon la formule : [formula] • T = concentration de cellules non traitées, • t = concentration de cellules traitées.
La concentration de produit qui diminue la croissance cellulaire de 50 % (Clso) est calculée d'après la méthode des régressions linéaires en coordonnées log-probit.
Lorsque la Cl50 est voisine de la micromolarité (égale ou inférieure à 1 µM), il existe une présomption d'activité antitumorale et les essais in vivo indiqués ci-après sont effectués.
A titre d'exemple, la CI50 mesurée 48 heures après traitement des cellules par les composés de l'invention testés est la suivante : […]

[3] = Determination of toxicity (DLo), single intraperitoneal dose; assay type: in vivo; conditions: voie intrapéritonéale, dose unique, souris Swiss, suivies pendant un mois
Description: Ils sont tous administrés, par voie intrapéritonéale (ip), à des souris Swiss de 22 ± 2 g, à doses uniques exprimées en mg/kg de poids corporel. Les animaux sont suivis pendant un mois. La mortalité et les signes de toxicité sont relevés. On détermine ainsi la DLoqui sera la dose maximale utilisée pour la détermination de l'activité antitumorale.

Leucémie P388 = assay type: in vivo, souris DBA/2; conditions: for Animaux survivants/ animaux traités / T/C / ΔP (J5-J1): P388, greffe ip (10^6 cel), ip J1, suspension dans le Klucel; for activité antitumorale comparée: compared with the quinazolinedione of J. Med. Chem. 1983, 26, 1715-1719
Description: Afin de tester l'activité antitumorale des composés décrits plus haut, on a utilisé les leucémies murines P388 et L1210, ainsi que le mélanome murin B16. La leucémie P388 est considère comme très sensible et permet une première sélection. D'autre part, une substance ayant une grande activité sur la leucémie L1210 a une grande chance d'être active en clinique humaine (J.M. Venditti; Relevance of transplantable animal tumor systems to the Selection of new agents for clinical trial in pharmacological basis of cancer chemotherapy. The University of Texas ed. Williams and Wilkins, publ. 1975, Baltimore USA).
Cette étude a été réalisée sur 1, 2 ou 3 tumeurs murines expérimentales selon le schéma suivant :
Les produits en solution dans l'eau ou en suspension dans du Klucel sont administrés par voie intrapéritonéale 24 heures après la greffe des cellules tumorales (10 animaux par série), soit en injection unique (J1), soit pendant 9 jours consécutifs (Ji-9). Les morts sont relevés chaque jour à la même heure. La comparaison du temps médian de survie des souris témoins (C) et des souris traitées (T) permet d'apprécier l'activité antitumorale du produit. On adopte comme critère d'activité minimale la valeur de T/C supérieure ou égale à 125 % conformément aux critères établis par GERAN et par l'O.M.S. (Réf. GERAN R.I., GREENBERG N.H., MACDONALD M.M., SCHUMACHER A.M. and ABBOTT B.J. Protocols for screening chemical agents and natural products against animal tumors and other biological systems. Cancer Chemother. Rep. Part 3, 3, 1-103 (1972)).
Lorsque le composé est actif sur plusieurs tumeurs, son administration par d'autres voies que la voie intrapéritonéale (i.p.) est envisagée : orale (p.o) et intraveineuse (i.v). Les résultats des essais effectués à l'aide du composé 63 sont rassemblés dans le tableau IV ci-après.
Les résultats des essais effectués à l'aide des composés de l'invention n° 57 et 59 sont rassemblés dans le tableau IV Bis ci-après.
Dans les tableaux IV et IV Bis, P représentent la variation de poids entre J1 et J5 des animaux traités; lorsque P est supérieure à environ 4 g, cela signifie que la dose à laquelle le composé a été testé est toxique.

[4] = Solubility in water (statement); assay type: physicochemical

SMILES	IC50 [2]	DLo [3]	Animaux survivants/ animaux traités (Leucémie P388; 5 mg/kg)	T/C (Leucémie P388; 5 mg/kg)	ΔP (J5-J1) (Leucémie P388; 5 mg/kg)	Animaux survivants/ animaux traités (Leucémie P388; 2,5 mg/kg)	T/C (Leucémie P388; 2,5 mg/kg)	ΔP (J5-J1) (Leucémie P388; 2,5 mg/kg)	activité antitumorale comparée (Leucémie P388)	solubilité dans l'eau [4]	other results
O=C1C(N2CC2)=C(N2CC2)C(=O)c2ncncc21 [bis(aziridinyl-1)-6,7 quinazolinedione-5,8]	–	–	–	–	–	–	–	–	–	–	cytotoxicité in vitro sur les cellules L1210 (cellules L1210): cytotoxique; activité antitumorale in vivo sur la leucémie murine P388 (leucémie murine P388): une certaine activité antitumorale; activité antitumorale in vivo sur la leucémie L1210 (leucémie L1210): ne présente pas d'activité antitumorale significative; activité antitumorale in vivo sur le sarcome 180 (sarcome 180): ne présente pas d'activité antitumorale significative; activité in vivo sur le mélanocarcinome B16 (mélanocarcinome B16): très faible activité; activité par voie orale [1]: n'est pas actif
O=C1C(N2CC2)=C(N2CC2)C(=O)c2c(NCCCCCCCNc3ncnc4c3C(=O)C(N3CC3)=C(N3CC3)C4=O)ncnc21 [compound 54]	3.7 nM	–	–	–	–	–	–	–	–	–	–
CN(CCCNc1ncnc2c1C(=O)C(N1CC1)=C(N1CC1)C2=O)CCCNc1ncnc2c1C(=O)C(N1CC1)=C(N1CC1)C2=O [compound 57]	4.8 nM	~2,5 mg/kg	10/10	168%	-4,2 g	10/10	150%	-1,8 g	nettement plus actifs	insolubles dans l'eau	Animaux survivants/ animaux traités (Leucémie P388; 1,25 mg/kg): 06/06; T/C (Leucémie P388; 1,25 mg/kg): 137%; ΔP (J5-J1) (Leucémie P388; 1,25 mg/kg): -1,0 g
O=C1C(N2CC2)=C(N2CC2)C(=O)c2c(NCCOCCOCCNc3ncnc4c3C(=O)C(N3CC3)=C(N3CC3)C4=O)ncnc21 [compound 59]	18 nM	~10 mg/kg	10/10	133%	-1,1 g	10/10	115%	-0,5 g	nettement plus actifs	insolubles dans l'eau	Animaux survivants/ animaux traités (Leucémie P388; 10 mg/kg): 10/10; T/C (Leucémie P388; 10 mg/kg): 135%; ΔP (J5-J1) (Leucémie P388; 10 mg/kg): -1,8 g; Animaux survivants/ animaux traités (Leucémie P388; 15 mg/kg): 07/10; T/C (Leucémie P388; 15 mg/kg): 145%; ΔP (J5-J1) (Leucémie P388; 15 mg/kg): -4,1 g
COC1=CC(=O)c2ncnc(NCCCN3CCC(C4CCN(CCCNc5ncnc6c5C(=O)C(OC)=CC6=O)CC4)CC3)c2C1=O [compound 70]	–	–	–	–	–	–	–	–	–	–	IC50 ([2]; L 1210 cells, 48 heures après traitement): 1300 nM
